Test results: ChEMBL document CHEMBL5233248, “Resveratrol - A comprehensive review of recent advances in anticancer drug design and development” (Eur J Med Chem, 2020)

Tests used:
[1] = target: T1, Aromatase (Homo sapiens, UniProt P11511); assay: Inhibition of human recombinant aromatase using 7-methoxy-4-trifluoromethyl coumarin as substrate preincubated for 10 mins followed by compound addition measured after 30 mins in presence of NADPH by HTS analysis
T1 sequence (P11511 whole entry): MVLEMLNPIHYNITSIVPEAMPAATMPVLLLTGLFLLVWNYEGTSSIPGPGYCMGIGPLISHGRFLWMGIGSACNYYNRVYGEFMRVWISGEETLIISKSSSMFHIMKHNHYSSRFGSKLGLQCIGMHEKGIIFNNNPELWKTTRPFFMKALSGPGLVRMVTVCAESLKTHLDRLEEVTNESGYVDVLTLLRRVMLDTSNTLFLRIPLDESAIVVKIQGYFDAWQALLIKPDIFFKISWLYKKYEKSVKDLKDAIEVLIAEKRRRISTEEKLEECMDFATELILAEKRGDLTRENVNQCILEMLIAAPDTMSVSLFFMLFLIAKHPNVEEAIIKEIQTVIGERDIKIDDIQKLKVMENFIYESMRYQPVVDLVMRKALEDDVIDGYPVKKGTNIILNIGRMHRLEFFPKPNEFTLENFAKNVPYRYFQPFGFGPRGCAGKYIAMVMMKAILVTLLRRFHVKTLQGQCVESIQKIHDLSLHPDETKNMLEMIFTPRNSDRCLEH

[2] = Anticancer activity against human MuM-2B cells assessed as cell growth inhibition incubated for 72 hrs by CCK-8 assay; assay type: functional, cell-based
[3] = system: SF-295; assay: Anticancer activity against human SF-295 cells assessed as cell growth inhibition; assay type: functional
[4] = system: MDA-MB-435; assay: Anticancer activity against human MDA-MB-435 cells assessed as cell growth inhibition; assay type: functional
[5] = system: MV4-11; assay: Anticancer activity against human MV4-11 cells assessed as cell growth inhibition; assay type: functional; details: read-out: LD50 (the source's name)
[6] = system: UACC-62; assay: Anticancer activity against human UACC-62 cells assessed as cell growth inhibition; assay type: functional
[7] = system: HCT-116; assay: Anticancer activity against human HCT-116 cells assessed as cell growth inhibition incubated for 4 days; assay type: functional, cell-based; details: HCT-116, 96 h
[8] = system: SK-MEL-5; assay: Anticancer activity against human SK-MEL-5 cells assessed as cell growth inhibition; assay type: functional
[9] = system: COLO 205; assay: Anticancer activity against human COLO 205 cells assessed as cell growth inhibition; assay type: functional
[10] = system: SF-539; assay: Anticancer activity against human SF-539 cells assessed as cell growth inhibition; assay type: functional
[11] = Cytotoxicity activity against human CCD-1059Sk cells assessed as cell growth inhibition incubated for 48 hrs by MTS assay; assay type: toxicity, cell-based
[12] = system: MCF7; assay: Anticancer activity against human MCF7 cells assessed as cell growth inhibition incubated for 48 hrs by MTS assay; assay type: functional, cell-based; details: MCF7, 48 h
[13] = in vitro; details: human, CCD-1059Sk cells and MCF7 cells
Description: Selectivity index, ratio of IC50 for cytotoxicity against CCD-1059Sk cells to IC50 for antiproliferative activity against MCF7 cells in presence of resveratrol

[14] = in vitro; details: human, CCD-1059Sk cells and MCF7 cells; remark: listed apart in the source
Description: Selectivity index, ratio of IC50 for cytotoxicity against CCD-1059Sk cells to IC50 for antiproliferative activity against MCF7 cells

[15] = system: MCF7; assay: Anticancer activity against human MCF7 cells assessed as cell growth inhibition incubated for 48 hrs in presence of resveratrol by MTS assay; assay type: functional, cell-based; details: MCF7, 48 h
[16] = Cytotoxicity activity against human CCD-1059Sk cells assessed as cell growth inhibition incubated for 48 hrs in presence of resveratrol by MTS assay; assay type: toxicity, cell-based
[17] = system: HeLa; assay: Anticancer activity against human HeLa cells assessed as cell growth inhibition; assay type: functional, cell-based
[18] = system: Panel NCI-60 (60 carcinoma cell lines); assay: Growth inhibition of human Panel NCI-60 (60 carcinoma cell lines); assay type: functional
[19] = system: MDA-MB-231; assay: Anticancer activity against human MDA-MB-231 cells assessed as cell growth inhibition incubated for 48 hrs by SRB assay; assay type: functional, cell-based; details: MDA-MB-231, 48 h
[20] = system: PANC-1; assay: Anticancer activity against human PANC-1 cells assessed as cell growth inhibition incubated for 48 hrs by SRB assay; assay type: functional
[21] = system: HaCaT; assay: Anticancer activity against human HaCaT cells assessed as reduction of cell viability incubated for 48 hrs by MTT assay; assay type: functional, cell-based
[22] = system: MCF-12A; assay: Anticancer activity against human MCF-12A cells assessed as reduction of cell viability incubated for 48 hrs by MTT assay; assay type: functional, cell-based
[23] = system: MCF7; assay: Anticancer activity against human MCF7 cells assessed as reduction of cell viability incubated for 48 hrs by MTT assay; assay type: functional, cell-based; details: MCF7, 48 h
[24] = system: A-431; assay: Anticancer activity against human A-431 cells assessed as reduction of cell viability incubated for 48 hrs by MTT assay; assay type: functional, cell-based; details: A-431, 48 h
[25] = system: MCF7; assay: Anticancer activity against human MCF7 assessed as cell growth inhibition incubated for 24 hrs by MTT assay; assay type: functional, cell-based; details: MCF7, 24 h
[26] = system: PC-3; assay: Anticancer activity against human PC-3 assessed as cell growth inhibition incubated for 24 hrs by MTT assay; assay type: functional, cell-based; details: PC-3, 24 h
[27] = system: SK-OV-3; assay: Anticancer activity against human SK-OV-3 cells assessed as cell growth inhibition by LDH release assay; assay type: functional, cell-based
[28] = system: A2780; assay: Anticancer activity against human A2780 cells assessed as cell growth inhibition by LDH release assay; assay type: functional, cell-based
[29] = system: OVCAR-3; assay: Anticancer activity against human OVCAR-3 cells assessed as cell growth inhibition incubated for 24 hrs […] by MTT assay; assay type: functional, cell-based; details: OVCAR-3, 24 h
[30] = Anticancer activity against human Peritoneal mesothelial cells assessed as cell growth inhibition incubated for 24 hrs […] by MTT assay; assay type: functional, cell-based
[31] = system: A2780; assay: Anticancer activity against human A2780 cells assessed as cell growth inhibition incubated for 24 hrs […] by MTT assay; assay type: functional, cell-based; details: A2780, 24 h
[32] = system: OVCAR-3; assay: Anticancer activity against human OVCAR-3 cells assessed as cell growth inhibition by LDH release assay; assay type: functional, cell-based
[33] = system: SK-OV-3; assay: Anticancer activity against human SK-OV-3 cells assessed as cell growth inhibition incubated for 24 hrs […] by MTT assay; assay type: functional, cell-based; details: SK-OV-3, 24 h
[34] = Anticancer activity against human HOSE cells assessed as cell growth inhibition incubated for 24 hrs […] by MTT assay; assay type: functional, cell-based
[35] = Anticancer activity against human HOSE cells assessed as cell growth inhibition by LDH release assay; assay type: functional, cell-based
[36] = Anticancer activity against human Peritoneal mesothelial cells assessed as cell growth inhibition by LDH release assay; assay type: functional, cell-based
[37] = system: SK-OV-3; assay: Anticancer activity against human SK-OV-3 assessed as cell growth inhibition incubated for 72 hrs by MTT assay; assay type: functional, cell-based; details: SK-OV-3, 72 h
[38] = system: HL-60; assay: Anticancer activity against human HL-60 cells assessed as cell growth inhibition incubated for 48 hrs by MTT assay; assay type: functional, cell-based; details: HL-60, 48 h
[39] = system: HeLa; assay: Anticancer activity against human HeLa cells assessed as cell growth inhibition incubated for 48 hrs by MTT assay; assay type: functional, cell-based
[40] = system: MDA-MB-157; assay: Anticancer activity against human MDA-MB-157 cells assessed as cell viability at 10 uM measured after 7 days relative to control; assay type: functional; details: MDA-MB-157, 168 h, time 7 day, read-out: Activity
[41] = system: BT-549; assay: Anticancer activity against human BT-549 cells assessed as cell viability at 10 uM measured after 7 days relative to control; assay type: functional; details: BT-549, 168 h, time 7 day, read-out: Activity
[42] = system: B16-F10; assay: Anti cancer activity against mouse B16-F10 cells assessed as cell growth inhibition incubated for 40 hrs by Almar Blue stained fluorescence-based assay relative to control; assay type: functional
[43] = system: MDA-MB-231; assay: Anticancer activity against human MDA-MB-231 cells assessed as cell viability at 10 uM measured after 7 days relative to control; assay type: functional; details: MDA-MB-231, 168 h, time 7 day, read-out: Activity
[44] = system: HT-29; assay: cells; details: Homo sapiens, HT-29, 48 h
Description: Anti cancer activity against human HT-29 cell assessed as cell growth inhibition incubated for 48 hrs by Brdu assay

[45] = system: MCF7; assay: Anticancer activity against human MCF7 cells assessed as cell viability at 10 uM measured after 7 days relative to control; assay type: functional; details: MCF7, 168 h, time 7 day, read-out: Activity
[46] = system: Caco-2; assay: cells; details: Homo sapiens, Caco-2, 48 h
Description: Anti cancer activity against human Caco-2 cell assessed as cell growth inhibition incubated for 48 hrs by Brdu assay

[47] = system: B16-F10; assay: Anti cancer activity against mouse B16-F10 cells assessed as cell growth inhibition incubated for 40 hrs by Almar Blue stained fluorescence-based assay; assay type: functional; details: B16-F10, 40 h
[48] = system: HepG2; assay: cells; details: Homo sapiens, HepG2, 48 h
Description: Anti cancer activity against human HepG2 cell assessed as cell growth inhibition incubated for 48 hrs by Brdu assay

[49] = system: ZR-75-1; assay: Anticancer activity against human ZR-75-1 cells assessed as cell viability at 10 uM measured after 7 days relative to control; assay type: functional; details: ZR-75-1, 168 h, time 7 day, read-out: Activity

Work on `COc1ccccc1/C=C/c1ccc(OC)c(OC)c1` yielded an IC50 [1] of 85 µM.

In the case of `COc1cc(/C=C/c2ccc(OCC(=O)O[C@H]3c4cc5c(cc4[C@@H](c4cc(OC)c(OC)c(OC)c4)[C@H]4C(=O)OC[C@@H]43)OCO5)cc2)cc(OC)c1`, the IC50 [2] is reported as 0.081 µM.

Compound `COc1ccc(/C(C#N)=C/c2ccc3ccccc3c2)cc1OC` has a GI50 [3] of 0.025 µM, a GI50 [4] of 0.025 µM and a CC50 [5] of 0.45 µM. The GI50 [6] was 0.025 µM.

`CC1c2cc(O)c(O)cc2Oc2cc(/C=C/c3ccc(O)cc3)cc(O)c21` (stereo not drawn) showed an IC50 [7] of 9.52 µM.

Work on `COc1cc(/C(C#N)=C/c2ccc3ccccc3c2)cc(OC)c1OC` yielded a GI50 [8] of no more than 0.025 µM, a GI50 [9] of no more than 0.025 µM and a GI50 [4] of no more than 0.025 µM. For the same compound, the CC50 [5] was 0.2 µM and the GI50 [10] was no more than 0.025 µM.

In the case of `COc1cc(/C=C/C(=O)CC(=O)/C=C/c2ccc(O)c(OC)c2)ccc1O` [CURCUMIN], the IC50 at 48 h [11] is reported as 133 µM, the IC50 [12] is reported as 68.2 µM and the selectivity ratio [13] is reported as 1.35. It also gave a selectivity ratio [14] of 1.93, an IC50 [15] of 61.7 µM and an IC50 at 48 h [16] of 83.1 µM.

`CC(=O)Oc1ccc(/C=C/c2ncc3cccc(OC(C)=O)c3n2)cc1OC(C)=O` gave an IC50 [17] of 10.2 µM.

`COc1ccc(/C=C\c2cc(OC)c(OC)c(OC)c2)cc1O` [COMBRETASTATIN A4] showed a GI50 [18] of less than 0.01 µM.

Work on `COc1cc(/C=C/c2ccc(OC(=O)CSc3nnc(-c4cccc(C(F)(F)F)c4)o3)cc2)cc(OC)c1` yielded an IC50 [19] of 0.072 µM, a GI50 ([20]; 48 h) of 0.094 µM and a GI50 ([20]; Homo sapiens, PANC-1, 48 h) of 0.064 µM.

For `COc1cc(/C=C/c2ccc(SC)cc2)cc(OC)c1OC`, the IC50 [21] was 10 µM, the IC50 [22] was 25.7 µM and the IC50 [23] was 2.1 µM. The IC50 [24] was 19.3 µM.

Compound `Oc1ccc(/C=C/c2cccc(Br)n2)cc1O` has an IC50 [25] of 14.5 µM and an IC50 [26] of 12.4 µM.

With `Oc1ccc(/C=C/c2ccc(O)c(O)c2)cc1O` the IC50 [27] was 10 µM, the IC50 [28] was 6 µM and the IC50 [29] was 50 µM. It also gave an IC50 [30] of 496 µM, an IC50 [31] of 4 µM and an IC50 [32] of 85 µM. It also gave an IC50 [33] of 8 µM, an IC50 [34] of 502 µM and an IC50 [35] of 532 µM. It also gave an IC50 [36] of 498 µM.

For `COc1cc(OC)cc(-n2cnc(-c3ccc(O)cc3)c2)c1`, the IC50 [37] was 18.2 µM.

For `COc1ccc(NC(=O)c2cc(OC)cc(OC)c2)cc1`, the IC50 [38] was 47.7 µM and the IC50 [39] was 38.9 µM.

For `COc1ccc(/C=C\c2cc(OC)cc(OC)c2)cc1` [8Z-3,4',5-TRIMETHOXYSTILBENE], the viability at 10 µM [40] was 25%, the viability at 10 µM [41] was 70% and the “inhibition (INH)” value [42] was 75%. For the same compound, the viability at 10 µM [43] was 10%, the IC50 [44] was 0.115 µM and the viability at 10 µM [45] was 50%. For the same compound, the IC50 [46] was 0.145 µM, the IC50 [47] was 1 µM and the IC50 [48] was 0.473 µM. For the same compound, the viability at 10 µM [49] was less than 50%.

Work on `COc1ccc(/C=C(\C#N)c2cc(OC)c(OC)c(OC)c2)cc1O` yielded a GI50 [18] of less than 0.01 µM.
